According to ChEMBL document CHEMBL4270502, “From bench (laboratory) to bed (hospital/home): How to explore effective natural and synthetic PAK1-blockers/longevity-promoters for cancer therapy” (Eur J Med Chem, 2017):
Each block holds one compound with its values, some of them ahead of it.

Experiments:
[1] = tested on: Caenorhabditis elegans; experiment: Increase in lifespan of Caenorhabditis elegans N2 var. Bristol at 40 uM; format: functional
[2] = tested on: Caenorhabditis elegans; experiment: Increase in lifespan of Caenorhabditis elegans age-1(hx546) at 40 uM; format: functional
[3] = tested on: A549; experiment: Growth inhibition of human A549 cells; format: functional, cell-based
[4] = target: T1, Serine/threonine-protein kinase PAK 1 (Homo sapiens, UniProt Q13153); experiment: Inhibition of HA-PAK1 (unknown origin) using histone H4 substrate and [gamma-32P] ATP by autoradiography
T1 sequence (Q13153 whole entry): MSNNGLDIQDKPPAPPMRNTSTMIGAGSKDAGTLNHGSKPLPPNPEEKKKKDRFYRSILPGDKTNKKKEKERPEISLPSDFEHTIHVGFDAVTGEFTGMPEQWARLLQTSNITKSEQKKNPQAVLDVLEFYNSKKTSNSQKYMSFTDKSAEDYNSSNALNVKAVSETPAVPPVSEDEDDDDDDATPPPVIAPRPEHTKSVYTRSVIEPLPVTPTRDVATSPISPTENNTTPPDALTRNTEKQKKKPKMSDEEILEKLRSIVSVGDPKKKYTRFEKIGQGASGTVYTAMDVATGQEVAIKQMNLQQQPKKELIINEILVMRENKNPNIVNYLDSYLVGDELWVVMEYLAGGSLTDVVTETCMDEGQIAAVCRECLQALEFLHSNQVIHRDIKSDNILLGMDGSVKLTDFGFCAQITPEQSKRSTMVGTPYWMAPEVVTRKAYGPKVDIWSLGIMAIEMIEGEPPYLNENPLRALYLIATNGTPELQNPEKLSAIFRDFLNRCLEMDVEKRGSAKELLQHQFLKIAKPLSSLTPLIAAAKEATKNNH

[5] = target: Mitogen-activated protein kinase kinase kinase 11 (Homo sapiens, UniProt Q16584); experiment: Inhibition of flag-tagged MLK3 (unknown origin) expressed in human HeLa cells assessed as reduction in enzyme autophosphorylation incubated for 20 mins by immunoprecipitatation; format: cell-based
Sequence of Mitogen-activated protein kinase kinase kinase 11 (Q16584 whole entry): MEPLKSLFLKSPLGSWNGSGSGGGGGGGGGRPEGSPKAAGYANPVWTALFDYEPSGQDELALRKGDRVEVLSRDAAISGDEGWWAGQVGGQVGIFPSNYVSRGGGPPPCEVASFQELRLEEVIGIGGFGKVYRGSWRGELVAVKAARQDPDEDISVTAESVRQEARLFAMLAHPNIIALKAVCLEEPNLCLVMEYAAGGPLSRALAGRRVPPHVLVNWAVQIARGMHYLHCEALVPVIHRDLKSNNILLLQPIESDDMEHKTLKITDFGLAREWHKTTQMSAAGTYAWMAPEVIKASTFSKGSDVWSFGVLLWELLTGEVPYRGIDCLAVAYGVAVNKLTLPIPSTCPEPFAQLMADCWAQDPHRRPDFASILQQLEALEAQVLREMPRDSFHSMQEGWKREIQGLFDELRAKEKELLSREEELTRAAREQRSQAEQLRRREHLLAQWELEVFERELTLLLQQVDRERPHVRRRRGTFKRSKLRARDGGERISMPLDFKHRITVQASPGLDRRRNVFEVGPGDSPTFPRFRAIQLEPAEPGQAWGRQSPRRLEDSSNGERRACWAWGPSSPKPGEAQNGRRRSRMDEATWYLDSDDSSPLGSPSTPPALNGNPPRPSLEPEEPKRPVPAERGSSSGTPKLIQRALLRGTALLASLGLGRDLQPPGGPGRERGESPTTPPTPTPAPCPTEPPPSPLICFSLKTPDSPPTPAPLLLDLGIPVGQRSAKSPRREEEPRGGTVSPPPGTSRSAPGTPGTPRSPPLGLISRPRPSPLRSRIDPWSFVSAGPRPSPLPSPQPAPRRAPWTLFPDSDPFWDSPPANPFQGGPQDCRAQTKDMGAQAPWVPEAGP

[6] = target: T2, Serine/threonine-protein kinase PAK 1 (Mus musculus, UniProt O88643); experiment: Inhibition of PAK1 in v-Ha-RAS-transformed mouse NIH/3T3 cells incubated for 1 hr by immunoblot analysis
T2 sequence (O88643 whole entry): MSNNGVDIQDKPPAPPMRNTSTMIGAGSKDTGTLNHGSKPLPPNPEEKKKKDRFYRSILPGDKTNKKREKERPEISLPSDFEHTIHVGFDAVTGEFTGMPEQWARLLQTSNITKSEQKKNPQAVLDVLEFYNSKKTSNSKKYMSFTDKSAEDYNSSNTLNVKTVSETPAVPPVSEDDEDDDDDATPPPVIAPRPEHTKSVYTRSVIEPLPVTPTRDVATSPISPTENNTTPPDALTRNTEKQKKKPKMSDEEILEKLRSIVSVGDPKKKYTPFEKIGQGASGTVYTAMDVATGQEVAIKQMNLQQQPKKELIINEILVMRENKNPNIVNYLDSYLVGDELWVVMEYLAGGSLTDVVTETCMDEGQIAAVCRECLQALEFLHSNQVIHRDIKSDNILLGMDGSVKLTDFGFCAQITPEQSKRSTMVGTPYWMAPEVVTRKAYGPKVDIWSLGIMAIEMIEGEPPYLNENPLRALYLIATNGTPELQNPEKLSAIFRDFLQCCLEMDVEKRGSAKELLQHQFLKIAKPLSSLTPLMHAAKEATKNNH

[7] = tested on: A549; experiment: Growth inhibition of RAS-transformed human A549 cells; format: functional, cell-based
[8] = tested on: Caenorhabditis elegans; experiment: Increase in lifespan of Caenorhabditis elegans; format: functional
[9] = target: T1, Serine/threonine-protein kinase PAK 1; experiment: Inhibition of PAK1 in human MCF7 cells transfected with constitutively active NH2-terminally truncated C1199 Tiam1 construct; format: cell-based
[10] = target: Serine/threonine-protein kinase PAK 3 (Homo sapiens, UniProt O75914); experiment: Inhibition of GST-tagged PAK3 (unknown origin) expressed in Escherichia coli using peptide PC9 substrate
Sequence of Serine/threonine-protein kinase PAK 3 (O75914 whole entry): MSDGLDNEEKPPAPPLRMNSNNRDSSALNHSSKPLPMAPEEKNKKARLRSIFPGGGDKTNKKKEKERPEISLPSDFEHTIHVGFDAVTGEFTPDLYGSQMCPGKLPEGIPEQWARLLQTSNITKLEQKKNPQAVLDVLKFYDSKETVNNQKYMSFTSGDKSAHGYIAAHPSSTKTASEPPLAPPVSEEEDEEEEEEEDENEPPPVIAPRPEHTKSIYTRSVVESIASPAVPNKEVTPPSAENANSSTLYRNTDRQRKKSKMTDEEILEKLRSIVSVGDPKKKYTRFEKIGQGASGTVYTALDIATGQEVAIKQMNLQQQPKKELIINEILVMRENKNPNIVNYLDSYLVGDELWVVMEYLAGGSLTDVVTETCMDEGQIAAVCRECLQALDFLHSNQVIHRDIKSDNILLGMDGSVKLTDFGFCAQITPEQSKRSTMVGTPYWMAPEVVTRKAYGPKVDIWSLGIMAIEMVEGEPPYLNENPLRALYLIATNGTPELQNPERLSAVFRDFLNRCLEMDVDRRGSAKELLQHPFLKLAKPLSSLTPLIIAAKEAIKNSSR

[11] = target: Protein kinase C (PKC); experiment: Inhibition of rat brain PKC using […] derived peptide substrate
[12] = target: T1, Serine/threonine-protein kinase PAK 1; experiment: Inhibition of recombinant human PAK1 by ADP-Glo kinase assay
[13] = target: T1, Serine/threonine-protein kinase PAK 1; experiment: Inhibition of PAK1 (unknown origin)
[14] = Growth stimulation of HFDPC assessed as increase in cell viability incubated for 3 days by MTT assay; format: functional, Homo sapiens
[15] = target: T1, Serine/threonine-protein kinase PAK 1; experiment: Inhibition of PAK1 (unknown origin) by cell culture based assay
[16] = Potency index, ratio of IC50 for caffeic acid to IC50 for test compound for cytotoxicity in human M8 cells by MTT assay; format: functional
[17] = Cytotoxicity in human M8 cells by MTT assay; format: functional, cell-based
[18] = tested on: Caenorhabditis elegans; experiment: Increase in lifespan of Caenorhabditis elegans N2 at 100 uM; format: functional
[19] = tested on: Mus musculus; experiment: Increase in lifespan of C57BL/6J mouse at 2 mg/kg/day dosed in drinking water; format: functional; settings: feed or water
[20] = Stability assessed as shelf life at 4 degC; format: physicochemical
[21] = target: T2, Serine/threonine-protein kinase PAK 1; experiment: Inhibition of PAK1 in v-Ha-RAS-transformed mouse NIH/3T3 cells incubated for 48 hrs by immunoblot analysis
[22] = target: T1, Serine/threonine-protein kinase PAK 1; experiment: Inhibition of PAK1 in estrogen-stimulated human MCF7 cells incubated for 48 hrs by immunoblot analysis; format: cell-based
[23] = target: T1, Serine/threonine-protein kinase PAK 1; experiment: Inhibition of PAK1 in human A549 cells; format: cell-based
[24] = tested on: PC-3; experiment: Antitumor activity against human PC3 cells wenografted in mouse assessed as inhibition of tumor growth at 3 mg/kg/day; format: functional; settings: read-out: TGI
[25] = tested on: Caenorhabditis elegans; experiment: Increase in lifespan of Caenorhabditis elegans N2 CGCb under 2 mM H2O2-induced oxidative stress conditions at 1 to 50 mg/L; format: functional

Compound: CC1=C(/C=C/C(C)=C/C=C/C(C)=C/C=C/C=C(C)/C=C/C=C(C)/C=C/C2=C(C)C(=O)C(O)CC2(C)C)C(C)(C)CC(O)C1=O (stereo not given)
- Activity [1]: 16 - 30%
- Activity [2]: 16 - 30%
- IC50 [3]: 40 µM

- IC50 [4]: 2.5 µM
- IC50 [3]: 2 to 3 µM
Compound: CCCCCC(=O)c1c(O)cc(OC)c(Cl)c1O

- IC50 [5]: 0.02 µM
- IC50 [6]: 1 µM
- IC50 [7]: 1 µM
- IC50 [3]: 1 µM
Compound: CCSCc1ccc2c(c1)c1c3c(c4c5cc(CSCC)ccc5n5c4c1n2C1C[C@](O)(C(=O)OC)[C@]5(C)O1)CNC3=O

- IC50 [3]: 0.01 µM
Compound: Cc1ccc(-c2nn(C(C)(C)C)c3ncnc(N)c23)cc1

- IC50 [3]: 0.25 µM
Compound: CC(C)NC(=O)N1CC[C@H](NC2=Nc3cc(F)ccc3N(CC(F)F)c3ccc(Cl)cc32)C1

- IC50 [3]: > 1 µM
Compound: CNc1ncc2cc(-c3ccc(-c4cccc(C)n4)cc3Cl)c(=O)n(C[C@H]3OC[C@H](N)CO3)c2n1

- IC50 [3]: 0.06 µM
Compound: CCS(=O)(=O)c1cc(Nc2ncc(F)c(N(Cc3ccccc3C#N)c3cc(CO)ccc3C)n2)ccc1N1CCN(C)CC1

Compound: COc1ccccc1-n1cc(COC(=O)C2CCn3c(C(=O)c4ccccc4)ccc32)nn1 (stereo not given)
- ILS [8]: 30%

- IC50 [9]: 4 µM
Compound: Cc1cc(C)cc(NC(=N)Nc2ccccc2C(F)(F)F)c1

- IC50 [10]: 0.001 µM
- IC50 [11]: 0.001 µM
Compound: CN[C@@H]1C[C@H]2O[C@@](C)([C@@H]1OC)n1c3ccc(O)cc3c3c4c(c5c6cc(O)ccc6n2c5c31)C(=O)NC4

- IC50 [3]: 0.225 µM
Compound: COc1ccccc1-n1cc(COC(=O)/C=C/c2ccc(O)c(O)c2)nn1

- IC50 [3]: 10 µM
Compound: CC(=O)CCC=C(C)CCC=C(C)CCC=C(C)CCC=C(C)C

- IC50 [3]: 0.005 µM
Compound: CC(C)(C)c1cc(/C=C(\C#N)C(=S)NCCCCCCN)cc(C(C)(C)C)c1O

Compound: CO[C@@H]1[C@@H](O)[C@H](O[C@@H]2[C@@H](O)[C@H](O[C@H]3[C@H](O)[C@@H](O[C@@H]4OC[C@@H](O)[C@H](O)[C@H]4O)[C@H](O[C@H]4[C@H](O[C@H]5CC[C@]6(C)[C@@H]7CCC89C(=O)O[C@@](C)(CCCC(C)C)[C@H]8[C@@H](OC(C)=O)C[C@@]9(C)C7=CC[C@H]6C5(C)C)OC[C@@H](OS(=O)(=O)O)[C@@H]4O)O[C@@H]3C)OC[C@H]2O)O[C@H](CO)[C@H]1O (stereo not given in full)
- IC50 [12]: 1 µM
- IC50 [7]: 1 µM
- IC50 [3]: 0.6 to 1.5 µM

- IC50 [3]: 0.1 µM
Compound: COc1ccccc1-n1cc(COC(=O)[C@]23CC[C@@H](C)[C@H](C)[C@H]2C2=CC[C@@H]4[C@@]5(C)CC[C@H](O)C(C)(C)[C@@H]5CC[C@@]4(C)[C@]2(C)CC3)nn1

- IC50 [13]: 1 µM
- IC50 [3]: 30 µM
Compound: Oc1ccc2ccccc2c1SSc1c(O)ccc2ccccc12

- IC50 [15]: 25 µM
- IC50 [3]: 25 µM
Compound: CC(C)=CCc1cc(/C=C/C(=O)O)cc(CC=C(C)C)c1O [ARTEPILLIN]
- ED [14]: 20 µM

Compound: O=C(/C=C/c1ccc(O)c(O)c1)OCCc1ccccc1 [CAFFEIC ACID PHENETHYL ESTER]
- Ratio IC50 [16]: 10
- IC50 [17]: 10 µM
- Activity [18]: 15%
- IC50 [3]: 10 µM

Compound: O=C(O)/C=C/c1ccc(O)c(O)c1 [CAFFEIC ACID]
- IC50 [17]: 100 µM

Compound: CC(C)(O)/C=C/C(=O)[C@](C)(O)[C@H]1[C@H](O)C[C@@]2(C)[C@@H]3CC=C4[C@@H](C=C(O)C(=O)C4(C)C)[C@]3(C)C(=O)C[C@]12C [CUCURBITACIN I]
- IC50 [3]: 0.14 µM

- IC50 [3]: 23 µM
Compound: COc1cc(/C=C/C(=O)CC(=O)/C=C/c2ccc(O)c(OC)c2)ccc1O [CURCUMIN]

Compound: C[C@H](CCCCC(=O)O)O[C@@H]1O[C@@H](C)[C@H](O)C[C@H]1O [DAUMONE]
- IC50 [3]: 0.02 µM
- ILS at 2 mg/kg/day [19]: 50%

- IC50 [3]: 1300 µM
Compound: COc1ccc2[nH]cc(CCNC(C)=O)c2c1 [MELATONIN]

Compound: CC(C)[C@]12O[C@H]1[C@@H]1O[C@]13[C@]1(O[C@H]1C[C@H]1C4=C(CC[C@@]13C)C(=O)OC4)[C@@H]2OCOP(=O)([O-])[O-].[Na+].[Na+] [MINNELIDE]
- Stability [20]: 2 yr

- IC50 [3]: 0.05 to 0.5 µM
Compound: COc1c(C)c2c(c(O)c1C/C=C(\C)CCC(=O)OCCN1CCOCC1)C(=O)OC2 [MYCOPHENOLATE MOFETIL]

- IC50 [3]: 4 to 7 µM
Compound: CC(C)=CCC/C(C)=C/Cc1c(O)cc2c(c1O)C(=O)C[C@@H](c1ccc(O)c(O)c1)O2 [NYMPHAEOL A]

- IC50 [3]: 4 to 7 µM
Compound: CC(C)=CCC/C(C)=C/Cc1c([C@@H]2CC(=O)c3c(O)cc(O)cc3O2)ccc(O)c1O [NYMPHAEOL B]

- IC50 [3]: 4 to 7 µM
Compound: CC(C)=CCC/C(C)=C/Cc1c([C@@H]2CC(=O)c3c(cc(O)c(CC=C(C)C)c3O)O2)ccc(O)c1O [NYMPHAEOL C]

- IC50 [12]: 15 µM
- IC50 [3]: 30 µM
Compound: Oc1ccc(/C=C/c2cc(O)cc(O)c2)cc1 [RESVERATROL]

- IC50 [21]: < 0.001 µM
- IC50 [22]: < 0.001 µM
Compound: C/C=C1\NC(=O)[C@H]2CSSCC/C=C/[C@H](CC(=O)N[C@H](C(C)C)C(=O)N2)OC(=O)[C@H](C(C)C)NC1=O [ROMIDEPSIN]

- IC50 [23]: 0.5 µM
- IC50 [3]: 0.0134 µM
Compound: COCCn1c2c([n+](Cc3cnccn3)c1C)C(=O)c1ccccc1C2=O [SEPANTRONIUM BROMIDE]
- inhibition in vivo at 3 mg/kg/day [24]: > 50%

Compound: CC(C)[C@]12O[C@H]1[C@@H]1O[C@]13[C@]1(O[C@H]1C[C@H]1C4=C(CC[C@@]13C)C(=O)OC4)[C@@H]2O [TRIPTOLIDE]
- ILS [8]: 20%
- ILS [25]: 20%
- IC50 [3]: 0.03 µM

- IC50 [3]: 0.005 µM
Compound: CC(C)(C)c1cc(/C=C(\C#N)C(N)=S)cc(C(C)(C)C)c1O [TYRPHOSTIN AG 879]
